{
  "source": "patent US4337256A",
  "about": "“1-Phenyl isoquinoline-5-acetic acid compounds and analgesic compositions thereof” (priority 1978, dated 1982)",
  "key": {"[1]": {"conditions": "reported in J. Med. Chem. 1978, 21, 582-585; cited from earlier work"}, "platelet aggregation": {"system": "platelet aggregation", "test": "Activity of inhibiting platelet aggregation (collagen-induced)", "format": "cell-based, male Hartley guinea pig", "conditions": "Cavia porcellus, 2 min, read-out: ED50 (inhibition of platelet aggregation)", "description": "The citrated blood was centrifuged at a speed of 1,000 rpm for 10 minutes. The supernatant was collected to obtain a platelet-rich plasma. Separately, it was contrifuged at a speed of 3,000 rpm for 15 minutes, and the supernatant was collected to obtain a platelet-poor plasma. […] The platelet-rich plasma (250 μl) was placed in a cuvet, and preliminarily heated at 37° C. for 2 minutes, and then while stirring at a speed of 1,000 rpm, 31 μl of a test solution was added. The mixture was incubated for 2 minutes with stirring, and then 31 μl of a collagen solution was added, and the maximum aggregation rate of platelet was measured. The amount of the collagen applied was adjusted to the minimum effective amount which induced irreversible platelet aggregation. This amount was determined for each experiment. The percent inhibition of the test solution-applied group was determined in accordance with the following equation. From the percent inhibition, the ED50 value of the test compounds was calculated in accordance with the Litchfield-Wilcoxon method. Each test compound was dissolved in distilled water as a sodium salt."}, "[2]": {"biological_target": "T1, microsomes of bovine seminal vesicle (a prostaglandin synthesizing enzyme) (Bos taurus, UniProt O62664)", "T1 construct": "a microsome fraction prepared from bovine seminal vesicle; from tissue; host or cells: bovine seminal vesicle, lyophilized microsome fraction", "T1 sequence (O62664 25-600)": "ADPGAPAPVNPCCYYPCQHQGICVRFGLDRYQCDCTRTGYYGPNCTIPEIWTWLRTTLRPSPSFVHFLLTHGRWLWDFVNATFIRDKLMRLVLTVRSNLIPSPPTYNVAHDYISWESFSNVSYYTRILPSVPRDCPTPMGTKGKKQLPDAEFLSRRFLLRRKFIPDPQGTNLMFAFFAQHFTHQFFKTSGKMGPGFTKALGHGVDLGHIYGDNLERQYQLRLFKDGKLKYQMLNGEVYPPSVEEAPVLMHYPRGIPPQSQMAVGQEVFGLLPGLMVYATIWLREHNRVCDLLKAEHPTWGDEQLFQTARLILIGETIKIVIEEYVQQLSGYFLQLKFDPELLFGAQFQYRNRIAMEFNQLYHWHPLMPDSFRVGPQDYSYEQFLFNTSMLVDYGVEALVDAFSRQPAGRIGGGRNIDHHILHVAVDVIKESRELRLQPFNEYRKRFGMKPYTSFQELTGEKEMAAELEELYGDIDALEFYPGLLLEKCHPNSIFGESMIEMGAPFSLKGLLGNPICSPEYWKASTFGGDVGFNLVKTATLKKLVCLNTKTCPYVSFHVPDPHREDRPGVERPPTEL", "test": "Activity of inhibiting prostaglandin synthesis (prostaglandin E2 formed)", "format": "biochemical", "conditions": "37° C., 5 minutes, pH 8.0, 50 μM arachidonic acid; dissolved as a sodium salt; read-out: ED50 (inhibition of prostaglandin synthesis)", "description": "The activity of inhibiting prostaglandin synthesis was measured by adding a test compound, i.e. a substance having the activity of inhibiting prostaglandin synthesis, to a prostaglandin synthesizing reaction system shown below, and quantitatively determining to what extent synthesis of prostaglandin was inhibited.\n100 mM tris-HCl buffer (pH=8.0),\n0.0125 μCi/ml (14c)-arachidonic acid,\n1 mg/ml, as protein, of microsomes of bovine seminal vesicle (a prostaglandin synthesizing enzyme obtained by lyophylizing a microsome fraction prepared from bovine seminal vesicle).\nThe test compound was added to the reaction system to adjust the total amount to 1 ml. As a control, 1 ml of the above reaction system without addition of the test compound was provided. Each of these was incubated with shaking at 37° C. for 5 minutes, and 0.5 ml of 0.3 M citric acid was added to stop the reaction. The prostaglandin formed was extracted with ethyl acetate, fractionated by thin-layer chromatography. The radioactivity of each fraction was measured by a liquid scintillation counter. The amount of prostaglandin E2 formed in the group to which the test compound had been applied was measured, and the percent inhibition was calculated in accordance with the following equation. From the percent inhibition, the ED50 value of the test compounds was calculated in accordance with the Litchfield-Wilcoxon method. […]"}, "[3]": {"system": "writhings (acetic acid) in the mice", "test": "Analgesic activity: acetic acid writhing test", "format": "in vivo, male mice (ddY)", "conditions": "Mus musculus, po; p.o. 1 h before 0.6% acetic acid i.p.; parentheses show 95% confidence limits; read-out: ED50 (analgesic, writhing inhibition)", "description": "Male mice (ddY) weighing 18 to 22 g were used in groups each consisting of 10 mice. Each of the compounds was suspended in an aqueous solution of 0.5% of carboxymethyl cellulose and 2.0% of Tween 80, and administered orally through a tube. After one hour from the administration, 0.6% acetic acid was administered intraperitoneally in an amount of 0.1 ml per 10 g of body weight, and the number of writhings which occurred in the mice during a period of 20 minutes after the administration was measured. The percent inhibition was calculated from the following equation, and the ED50 values of the test compounds were calculated from the percent inhibition in accordance with the method of Litchfield-Wilcoxon."}, "stomach mucosal membrane": {"system": "stomach mucosal membrane", "test": "Ulcerogenic activity: gastric ulceration", "format": "in vivo, male Wistar rats", "conditions": "p.o., 4 h", "description": "Each of the test compounds was orally administered by the same way as in the test on anti-inflammatory activity to male Wistar rats weighing 120 to 150 g which had been fasted for 24 hours. Four hours later, they were killed with ether."}, "Toxicity test (LD50)": {"test": "Toxicity test (LD50)", "conditions": "mouse, in vivo; oral, observed for 1 week; parentheses show 95% confidence limits", "description": "Each of the test compounds was suspended in a physiological saline solution having dissolved therein 2% of Tween 80, and orally administered through a tube to groups of ddY mice (male: 19 to 22 g) each group consisting of 6 mice. The mice were then observed for 1 week. The LD50 values were calculated from the lethality in accordance with the method of Litchfield-Wilcoxon."}, "[4]": {"system": "left hind paw edema (carrageenin)", "test": "Anti-inflammatory activity: carrageenin-induced left hind paw edema", "format": "in vivo, male Wistar rats", "conditions": "Rattus norvegicus, po, p.o., 1 h before carrageenin, measured 3 h later, read-out: Percent inhibition (edema)", "description": "Male Wistar rats weighing 120 to 150 g which had been fasted for 24 hours were used in groups each consisting of 5 rats. In each group, the volumes of the left hind paw were measured by a volume differential meter (made by Ugo Basile Company), and each of the test compounds was suspended in an aqueous solution of 0.5% of carboxymethyl cellulose and 2.0% of Tween 80, and administered orally through a tube. After one hour from the administration, 0.1 ml of a 1% suspension of carrageenin in distilled water was subcutaneously injected into the plantar tissues of the left hind paw. Three hours later, the volumes of the left hind paw were again measured. The increase in volume of the left hind paw of each rat in each group (the volume of edema) was measured."}, "digestive organs": {"system": "digestive organs", "conditions": "known agents, statement in words; cited from earlier work"}},
  "note": "Where two headings read alike, the source gives them in different places.",
  "data": [
    {"compound": "NC(=O)Cc1cc2ccccc2c(-c2ccc(Cl)cc2)n1", "note": "[1-(4-chlorophenyl)-3-carbamoylmethyl isoquinoline]", "values": [
      {"measurement": "anti-inflammatory and analgesic activities", "setting": "[1]", "value": "has anti-inflammatory and analgesic activities"}
    ]},
    {"compound": "O=C(O)Cc1cccc2c(-c3ccc(Cl)cc3)nccc12", "note": "[A, 1-(4-chlorophenyl)isoquinoline-5-acetic acid]", "values": [
      {"measurement": "IC50", "setting": "platelet aggregation; collagen-induced, platelet-rich plasma, dissolved as a sodium salt, parentheses show 95% confidence limits", "value": 1900, "unit": "nM"},
      {"measurement": "IC50", "setting": "[2]", "value": 820, "unit": "nM"},
      {"measurement": "ED50", "setting": "[3]", "value": 1.4, "unit": "mg/kg"},
      {"measurement": "Gastric ulceration: bleeding at the mucosal membrane", "setting": "stomach mucosal membrane; 10 mg/kg", "value": "0/10"},
      {"measurement": "Gastric ulceration: damage beneath the mucosal membrane", "setting": "stomach mucosal membrane; 10 mg/kg", "value": "0/10"},
      {"measurement": "Gastric ulceration: bleeding at the mucosal membrane", "setting": "stomach mucosal membrane; 30 mg/kg", "value": "0/5"},
      {"measurement": "Gastric ulceration: damage beneath the mucosal membrane", "setting": "stomach mucosal membrane; 30 mg/kg", "value": "0/5"},
      {"measurement": "LD50 at 168 h", "setting": "Toxicity test (LD50)", "value": 182, "unit": "mg/kg"},
      {"measurement": "inhibition in vivo at 0.3 mg/kg", "setting": "[4]; 0.3 mg/kg", "value": "22.7 ± 6.1", "unit": "%"},
      {"measurement": "inhibition in vivo at 1 mg/kg", "setting": "[4]; 1 mg/kg", "value": "27.3 ± 7.4", "unit": "%"},
      {"measurement": "inhibition in vivo at 3 mg/kg", "setting": "[4]; 3 mg/kg", "value": "44.6 ± 5.8", "unit": "%"}
    ]},
    {"compound": "CC(=O)Oc1ccccc1C(=O)O", "note": "[Aspirin, reference compound]", "values": [
      {"measurement": "troubles in the digestive organs", "setting": "digestive organs", "value": "fairly heavy troubles in the digestive organs"},
      {"measurement": "IC50", "setting": "platelet aggregation; Platelet", "value": 15800, "unit": "nM"}
    ]}
  ]
}
